Assay results as given in patent publication US9566312B2, “Cyclic peptides and use as medicines” (priority 2012, dated 2017).
Read-outs that look alike come from different tables or passages of the source. Starred links: 1 amine or outer side, 2 acyl side, 3 side chain; linkers in the order of their positions; H or OH if unused. Non-standard residues stand in square brackets, D forms with d. Residues, ends and D or L forms follow the SMILES beside them. X33 = CC(C)N1CCOC(COC[C@@H](C)[C@@H](C(=O)[*:2])N(C)[*:1])C1; NMe(dihydroBmt) = CCCC[C@@H](C)[C@@H](O)[C@H](NC)C(=O)O; X76 = CO[C@H](CN1CCOCC1)[C@@H](C(=O)[*:2])N(C)[*:1]; X9 = C[C@@H](CN1CCOCC1)[C@@H](C(=O)[*:2])N(C)[*:1]; MeBmt = C/C=C/C[C@@H](C)[C@@H](O)[C@H](NC)C(=O)O; NMeL = CN[C@@H](CC(C)C)C(=O)O; NMeV = CN[C@H](C(=O)O)C(C)C; dNMeA = CN[C@H](C)C(=O)O; Abu = CC[C@H](N)C(=O)O

What was measured:
CypF = CypF (Homo sapiens (Human), UniProt P30405); experiment: Inhibitor binding to cyclophilin proteins by SPR, CypF; details: 1:1 binding model
Chain of CypF (P30405 30-207): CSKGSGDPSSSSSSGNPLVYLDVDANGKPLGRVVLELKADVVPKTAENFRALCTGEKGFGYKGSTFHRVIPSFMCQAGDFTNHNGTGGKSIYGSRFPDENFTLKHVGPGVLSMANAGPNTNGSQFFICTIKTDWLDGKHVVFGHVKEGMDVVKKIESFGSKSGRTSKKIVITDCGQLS
Procedure, shortened: (§1)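 Running buffer: 10 mM HEPES pH 7.4, 150 mM NaCl, 0.05% P20, 3% DMSO, with compound present. Capture of avi-tagged mono-biotinylated cyclophilin; single-cycle series, 1 min contact, 10 min dissociation. Rates and affinity fitted to a 1:1 interaction model.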

CYP3A4 = CYP3A4 (Homo sapiens (Human), UniProt P08684); experiment: Time-dependent inhibition of CYP3A4;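 further: Two-step in vitro assay, kobs derived from residual CYP3A4 activity versus preincubation time per concentration, then kinact and KI by nonlinear fit of kobs against concentration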
Chain of CYP3A4 (P08684 whole entry): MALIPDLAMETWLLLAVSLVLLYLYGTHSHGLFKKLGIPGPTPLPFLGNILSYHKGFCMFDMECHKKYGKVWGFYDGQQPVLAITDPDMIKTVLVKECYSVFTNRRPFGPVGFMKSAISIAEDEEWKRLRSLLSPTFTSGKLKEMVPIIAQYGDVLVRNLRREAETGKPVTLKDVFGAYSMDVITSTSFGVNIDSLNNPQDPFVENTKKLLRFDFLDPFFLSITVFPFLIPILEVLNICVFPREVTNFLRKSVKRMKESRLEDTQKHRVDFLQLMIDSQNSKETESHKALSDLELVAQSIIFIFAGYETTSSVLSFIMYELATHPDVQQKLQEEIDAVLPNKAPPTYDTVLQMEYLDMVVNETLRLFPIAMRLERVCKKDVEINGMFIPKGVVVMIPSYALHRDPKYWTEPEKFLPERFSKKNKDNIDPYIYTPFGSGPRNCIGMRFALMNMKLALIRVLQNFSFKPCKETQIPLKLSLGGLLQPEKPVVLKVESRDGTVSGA
Experimental: Method 5: Measuring Time-Dependent Inhibition of CYP3A4
The CYP3A4 time dependent inhibition potential of various inhibitors was determined by a two step in vitro assay. […] The inactivation rate constant (kobs) was obtained by plotting the activity remaining over pre-incubation time for each concentration of compound. The maximal inactivation rate (kinact) and the inactivation potency (KI) were calculated by non linear regression analysis of the inactivation rate constant (kobs) versus compound concentrations [I] curve according to the equation kobs=[kinact·[I]]/[KI+[I]]

[1] = test system: genotype 1b subgenomic HCV replicon in Huh7.5 cells; format: cell-based, hepatitis C virus; details: read-out: RPLN-1b IC50
Procedure, shortened: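 Replicon inhibition read as renilla luciferase signal versus DMSO controls after 72 h incubation, in Huh7.5 cells harbouring a genotype 1b subgenomic replicon; medium phenol red-free DMEM lacking G418. CC50 determined in parallel via Cell Titer-Glo.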

cyclophilin A (CypA) = cyclophilin A (CypA) (Homo sapiens (Human), UniProt P62937); experiment: Inhibitor binding to cyclophilin proteins by SPR, CypA; set-up: unit not given here; details: 1:1 binding model;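 further: Single-cycle kinetics on a Biacore T200, compound injected at several concentrations for 1 min each at 50 µL/min, then 10 min dissociation, in HEPES pH 7.4 buffer with 3% DMSO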
Chain of cyclophilin A (CypA) (P62937 whole entry): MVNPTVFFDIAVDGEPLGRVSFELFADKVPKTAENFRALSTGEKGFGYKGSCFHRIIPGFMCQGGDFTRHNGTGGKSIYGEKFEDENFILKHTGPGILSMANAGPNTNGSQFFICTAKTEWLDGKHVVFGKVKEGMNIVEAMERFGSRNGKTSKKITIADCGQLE

cyclophilin B (CypB) = cyclophilin B (CypB) (Homo sapiens (Human), UniProt P23284); experiment: Inhibitor binding to cyclophilin proteins by SPR, CypB; set-up: unit not given here; details: 1:1 binding model
Chain of cyclophilin B (CypB) (P23284 34-216): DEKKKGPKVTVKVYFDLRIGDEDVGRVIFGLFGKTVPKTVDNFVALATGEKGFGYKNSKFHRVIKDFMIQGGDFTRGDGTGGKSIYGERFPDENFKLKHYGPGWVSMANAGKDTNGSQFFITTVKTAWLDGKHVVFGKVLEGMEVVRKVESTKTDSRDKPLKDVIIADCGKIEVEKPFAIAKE
Procedure, shortened: as §1

[2] = test system: peripheral blood mononuclear cells (PBMC); experiment: Anti-proliferative or immunosuppressive activity, BrdU incorporation in PHA-stimulated PBMC; format: cell-based; details: PHA 3 μg/ml, 60 hour compound treatment; read-out: EMV PBMC IC50
Procedure, shortened: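 BrdU ELISA read-out of DNA synthesis in freshly isolated PBMCs (two donors, 30,000 cells/well, X-VIVO 15). T-cell proliferation triggered with phytohemagglutinin at 3 μg/ml.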

[3] = biological target: organic anion transporting polypeptide 1B1 (OATP1B1) (Homo sapiens (Human), UniProt Q9Y6L6); experiment: OATP assay in CHO-OATP1B1 cells;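 further: inhibition of probe substrate uptake into the cells, ten minutes exposure, accumulated substrate read by fluorescence once cells were lysed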
Chain of organic anion transporting polypeptide 1B1 (OATP1B1) (Q9Y6L6 whole entry): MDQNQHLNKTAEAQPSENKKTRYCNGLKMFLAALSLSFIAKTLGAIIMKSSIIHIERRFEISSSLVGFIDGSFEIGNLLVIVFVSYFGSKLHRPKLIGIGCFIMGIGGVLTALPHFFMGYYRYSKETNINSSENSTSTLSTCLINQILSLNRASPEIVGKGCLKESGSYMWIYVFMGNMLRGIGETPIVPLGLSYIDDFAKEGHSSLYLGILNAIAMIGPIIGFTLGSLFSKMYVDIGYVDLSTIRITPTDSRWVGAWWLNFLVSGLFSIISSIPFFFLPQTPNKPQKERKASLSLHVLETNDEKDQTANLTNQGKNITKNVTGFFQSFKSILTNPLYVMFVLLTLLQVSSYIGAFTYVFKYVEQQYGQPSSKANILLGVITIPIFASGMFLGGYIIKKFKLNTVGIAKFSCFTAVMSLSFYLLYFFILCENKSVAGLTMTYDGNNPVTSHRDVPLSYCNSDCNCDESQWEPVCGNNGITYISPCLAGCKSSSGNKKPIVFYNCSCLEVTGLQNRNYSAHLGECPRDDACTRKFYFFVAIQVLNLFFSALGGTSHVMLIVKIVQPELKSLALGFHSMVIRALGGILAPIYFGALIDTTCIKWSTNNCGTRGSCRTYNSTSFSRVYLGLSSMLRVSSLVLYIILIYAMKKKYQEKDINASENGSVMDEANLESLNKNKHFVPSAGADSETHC
Experimental: In order to determine whether the compounds of the present invention interact with hepatic transporters, experiments were carried out that compared the concentration-dependent inhibition toward the organic anion transporting polypeptide 1B1 (OATP1B1) and the multidrug resistance associated protein 2 (MRP2).
The cells were cultured in DMEM/F12 +10% FBS+2 mM Ala-Gln+1% Pen-Strep for a period of two days, and the media was changed one day post-seeding. Prior to the assay, media was aspirated and were washed −3× with HBSS+10 mM HEPES and the solution was equilibrated for 15 min in HBSS+10 mM HEPES. Solutions containing the inhibitor were prepared in HBSS+10 mM HEPES (up to 1% DMSO). […] After 10 min, the substrate or substrate/inhibitor solution was aspirated and the cells were washed 3× with HBSS+10 mM HEPES. The amount of the transported probe substrate was determined by fluorescent photometry after cell lysis, and the IC50 was derived from the concentration-response curve.

[4] = genotype 1b replicon, 72 h incubation

SMILES | CypF Kd (CypF) | Ki (CYP3A4) | IC50 [1, 4] | CypA Kd (cyclophilin A (CypA)) | CypB Kd (cyclophilin B (CypB)) | IC50 [2] | IC50 [3] | IC50 [1]
C/C=C/C[C@@H](C)[C@@H](O)[C@H]1C(=O)N[C@@H](CC)C(=O)N(C)[C@H](C)C(=O)N(C)[C@@H]([C@H](C)CCN2CCOCC2)C(=O)N[C@@H](C(C)C)C(=O)N(C)[C@@H](CC(C)C)C(=O)N[C@@H](C)C(=O)N[C@H](C)C(=O)N(C)[C@@H](CC(C)C)C(=O)N(C)[C@@H](CC(C)C)C(=O)N(C)[C@@H](C(C)C)C(=O)N1C (stereo in doubt) [Compound 2.18.1, 3-[D-Ala]-4-[(2S,3R)-3-methyl-2-(methylamino)-5-morpholinopentanoyl]-cyclosporin] | 0.9 nM | > 50000 nM | 22 nM | 1.5 | 0.8 | 16200 nM |  | 
C/C=C/C[C@@H](C)[C@@H](O)[C@H]1C(=O)N[C@@H](CC)C(=O)N(C)[C@H](CCCN2CCOCC2)C(=O)N(C)[C@@H]([C@H](C)CS(C)(=O)=O)C(=O)N[C@@H](C(C)C)C(=O)N(C)[C@@H](CC(C)C)C(=O)N[C@@H](C)C(=O)N[C@H](C)C(=O)N(C)[C@@H](CC(C)C)C(=O)N(C)[C@@H](CC(C)C)C(=O)N(C)[C@@H](C(C)C)C(=O)N1C (stereo in doubt) [Compound 3.4.2, 3-[(R)-2-(methylamino)-5-morpholinopentanoyl]-4-[(2S,3S)-3-methyl-2-(methylamino)-4-(methylsulfonyl)butanoyl]-cyclosporin] | 5 nM | > 50000 nM | 1300 nM | 8.7 | 4.4 | 13800 nM |  | 
CCCC[C@@H](C)[C@@H](O)[C@H]1C(=O)N[C@@H](CC)C(=O)N(C)[C@H](C)C(=O)N(C)[C@@H]([C@@H](C)CN2CCOCC2)C(=O)N[C@@H](C(C)C)C(=O)N(C)[C@@H](CC(C)C)C(=O)N[C@@H](C)C(=O)N[C@H](C)C(=O)N(C)[C@@H](CC(C)C)C(=O)N(C)[C@@H](CC(C)C)C(=O)N(C)[C@@H](C(C)C)C(=O)N1C [Compound 2.17.7, 1-dihydro-3-[D-Ala]-4[(2S,3S)-2-Amino-3-methyl-4-morpholin-4-yl-butanoyl]-cyclosporin] (cyclo(A[dA][NMeL][NMeL][NMeV][NMe(dihydroBmt)][Abu][dNMeA][X9]V[NMeL])) | 0.7 nM | > 50000 nM | 15 nM | 1.5 | 0.7 |  |  | 
C/C=C/C[C@@H](C)[C@@H](O)[C@H]1C(=O)N[C@@H](CC)C(=O)N(C)[C@H](C)C(=O)N(C)[C@@H]([C@H](C)COCC2CN(C(C)C)CCO2)C(=O)N[C@@H](C(C)C)C(=O)N(C)[C@@H](CC(C)C)C(=O)N[C@@H](C)C(=O)N[C@H](C)C(=O)N(C)[C@@H](CC(C)C)C(=O)N(C)[C@@H](CC(C)C)C(=O)N(C)[C@@H](C(C)C)C(=O)N1C (stereo partly drawn) [Compound 2.20.2, 3-[D-Ala]-4-[(2S,3S)-4-(((S)-4-isopropylmorpholin-2-yl)methoxy)-3-methyl-2-(methylamino)butanoyl]-cyclosporin] (cyclo(A[dA][NMeL][NMeL][NMeV][MeBmt][Abu][dNMeA][X33]V[NMeL])) | 0.3 nM |  | 44 nM | 0.6 | 0.5 | 6400 nM | 4300 nM | 
C/C=C/C[C@@H](C)[C@@H](O)[C@H]1C(=O)N[C@@H](CC)C(=O)N(C)[C@H](C)C(=O)N(C)[C@@H]([C@@H](CN2CCOCC2)OC)C(=O)N[C@@H](C(C)C)C(=O)N(C)[C@@H](CC(C)C)C(=O)N[C@@H](C)C(=O)N[C@H](C)C(=O)N(C)[C@@H](CC(C)C)C(=O)N(C)[C@@H](CC(C)C)C(=O)N(C)[C@@H](C(C)C)C(=O)N1C [Compound 2.21.1, 3-[D-Ala]-4-[(2S,3R)-3-methoxy-2-(methylamino)-4-morpholinobutanoyl]-cyclosporin] (cyclo(A[dA][NMeL][NMeL][NMeV][MeBmt][Abu][dNMeA][X76]V[NMeL])) | 1.2 nM |  |  | 2.8 | 1.2 | 15700 nM | 900 nM | 23 nM
